Measured values from patent US20220324835A1 (Nurix Therapeutics, Inc., priority 2018, published 2022).

Key:
Cbl-b [1] = molecular target: T1, Cbl-b (Homo sapiens, UniProt Q13191); assay: Cbl-b inhibition assay (Cbl-b activity assay, FRET, Biological Example 1; 100 mM NaCl, 60 nM Src kinase); assay type: biochemical; details: upper bound stated in text lists; read-out: IC50 values in the Cbl-b inhibition assay of Biological Example 1
In short: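 N-terminally biotinylated Avi-tagged Cbl-b was mixed with Src kinase, UbcH5B covalently conjugated to Bodipy-fluorescein ubiquitin, and streptavidin-terbium. Src phosphorylation lets Cbl-b bind UbcH5B-Ub, giving terbium-fluorescein FRET; inhibition is read as loss of FRET signal.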

T-cell [2] = assay: CD25 cell surface staining on T-cells co-stimulated with anti-CD3 and anti-CD28 antibody (Biological Example 2); assay type: cell-based, human; details: Homo sapiens, T-cell, read-out: CD25 staining Anti-CD3/Anti-CD28 stimulation; for fold induction at 0.3 µM: 0.3 μM Cbl-b inhibitor; for fold induction at 1 µM: 1 μM Cbl-b inhibitor; for fold induction at 4 µM: 4 μM Cbl-b inhibitor
From the text: (§1) Methods for experimentally determining increased T-cell activation, increased T-cell proliferation, decreased T-cell exhaustion, and/or decreased T-cell tolerance are well known in the art.
(§2) Modulation of activity of an immune cell, such as a T-cell, a B cell or a NK cell can be measured by determining a baseline value for a parameter of interest (e.g., cytokine secretion). […] A reference value then is obtained for T-cell activation after contacting or administering said Cbl-b inhibitor. The reference value is compared to the baseline value in order to determine the amount of T-cell activation due to contact or administration of the Cbl-b inhibitor or composition thereof. […] Immune cell activation can be assessed by measuring biological markers of activation such as increased cytokine secretion, increased cell surface expression of activation markers (e.g., cell surface markers), or increased phosphorylation of proteins in a downstream signaling pathway. The fold over baseline value that indicates immune cell activation can be determined for the parameter being tested and the conditions under which the immune cell were treated. For example, for measuring T-cell activation, a baseline value can be obtained from T-cells stimulated with anti-CD3 antibody in combination with anti-CD28 antibody, wherein the cells are not incubated with a Cbl-b inhibitor. […] A positive response for immune cell activation can then be determined by the obtained reference value. […]

Cbl-b [3] = molecular target: T1, Cbl-b; assay: Cbl-b activity assay (Cbl-b inhibition assay), TR-FRET of Cbl-b interaction with UbcH5B-Ub; assay type: biochemical; details: assay buffer with 100 mM NaCl, 60 nM Src kinase; read-out: Cbl-b activity IC50
In short: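 Compound-treated Cbl-b was incubated 1.5 h with Src kinase (60 nM final; 30 nM for asterisked values, which also used 50 mM instead of 100 mM NaCl), 1 mM ATP and 5 mM MgCl2. Binding to fluorescent Ub-loaded UbcH5B (C85K mutant) was then read by TR-FRET after 1 h more.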

T-cell [4] = assay: CD25 cell surface staining on T-cells stimulated with anti-CD3 antibody alone (Biological Example 2); assay type: cell-based, human; details: T-cell, read-out: CD25 staining Anti-CD3 stimulation; for fold induction at 1 µM: 1 μM Cbl-b inhibitor; for fold induction at 8 µM: 8 μM Cbl-b inhibitor
From the text: as §1
(§3) Modulation of activity of an immune cell, such as a T-cell, a B cell or a NK cell can be measured by determining a baseline value for a parameter of interest (e.g., cytokine secretion). […] A reference value then is obtained for T-cell activation after contacting or administering said Cbl-b inhibitor. The reference value is compared to the baseline value in order to determine the amount of T-cell activation due to contact or administration of the Cbl-b inhibitor or composition thereof. […] Immune cell activation can be assessed by measuring biological markers of activation such as increased cytokine secretion, increased cell surface expression of activation markers (e.g., cell surface markers), or increased phosphorylation of proteins in a downstream signaling pathway. The fold over baseline value that indicates immune cell activation can be determined for the parameter being tested and the conditions under which the immune cell were treated. For example, for measuring T-cell activation, a baseline value can be obtained from T-cells stimulated with anti-CD3 antibody in combination with anti-CD28 antibody, wherein the cells are not incubated with a Cbl-b inhibitor. […] A positive response for immune cell activation can then be determined by the obtained reference value.
(§4) In some embodiments, a baseline value can be obtained from T-cells stimulated with anti-CD3 antibody alone, wherein the cells are not incubated with a Cbl-b inhibitor. In some embodiments, a positive response for T-cell activation as measured by cytokine secretion (e.g., IL-2 secretion) by T-cells stimulated with anti-CD3 antibody alone in the presence of a Cbl-b inhibitor is at least 0.1-fold over the baseline value for cytokine secretion (e.g., IL-2 secretion) obtained from T-cells stimulated with anti-CD3 antibody alone in the absence of a Cbl-b inhibitor. In some embodiments, a positive response for T-cell activation as measured by surface marker expression (e.g., CD25 surface marker staining) by T-cells stimulated with anti-CD3 antibody alone in the presence of a Cbl-b inhibitor is at least 0.6-fold over the baseline value for surface marker expression (e.g., CD25 surface marker staining) obtained from T-cells stimulated with anti-CD3 antibody alone in the absence of a Cbl-b inhibitor.

T-cell [5] = assay: IL-2 secretion from T-cells stimulated with anti-CD3 antibody alone (Biological Example 2); assay type: cell-based, human; details: T-cell, read-out: IL-2 secretion Anti-CD3 stimulation; for fold induction at 1 µM: 1 μM Cbl-b inhibitor; for fold induction at 8 µM: 8 μM Cbl-b inhibitor
From the text: as §1, §3, §4

T-cell [6] = assay: IL-2 secretion from T-cells co-stimulated with anti-CD3 and anti-CD28 antibody (Biological Example 2); assay type: cell-based, human; details: Homo sapiens, T-cell, read-out: IL-2 secretion Anti-CD3/Anti-CD28 stimulation; for fold induction at 0.3 µM: 0.3 μM Cbl-b inhibitor; for fold induction at 1 µM: 1 μM Cbl-b inhibitor; for fold induction at 4 µM: 4 μM Cbl-b inhibitor
From the text: as §1, §2

[7] = fold change over baseline (anti-CD3/anti-CD28 stimulated T-cells without inhibitor)
[8] = Homo sapiens, fold change over baseline (anti-CD3/anti-CD28 stimulated T-cells without inhibitor)
[9] = fold change over baseline, primary human total T-cells

T1 sequence (Q13191 36-427): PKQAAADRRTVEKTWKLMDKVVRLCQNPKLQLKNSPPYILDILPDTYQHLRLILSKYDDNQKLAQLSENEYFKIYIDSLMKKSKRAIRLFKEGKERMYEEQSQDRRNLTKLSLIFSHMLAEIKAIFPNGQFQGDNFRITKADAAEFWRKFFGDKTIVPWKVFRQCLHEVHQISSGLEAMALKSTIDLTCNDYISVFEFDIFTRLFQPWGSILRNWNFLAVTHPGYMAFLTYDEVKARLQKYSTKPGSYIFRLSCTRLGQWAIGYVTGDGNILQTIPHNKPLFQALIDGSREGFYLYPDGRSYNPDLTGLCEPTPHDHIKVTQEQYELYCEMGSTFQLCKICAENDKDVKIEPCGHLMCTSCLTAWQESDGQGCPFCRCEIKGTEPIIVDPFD

Row | SMILES | IC50 (Cbl-b [1]) [nM] | fold induction at 0.3 µM (T-cell [2]; [7]) | fold induction at 1 µM (T-cell [2]; [7]) | IC50 (Cbl-b [3]) [nM] | fold induction at 1 µM (T-cell [4]; [8]) | fold induction at 1 µM (T-cell [5]; [8]) | fold induction at 0.3 µM (T-cell [6]; [7]) | fold induction at 1 µM (T-cell [6]; [7]) | fold induction at 0.3 µM (T-cell [2]; [9]) | fold induction at 1 µM (T-cell [2]; [9]) | fold induction at 4 µM (T-cell [2]; [9]) | fold induction at 1 µM (T-cell [4]; [9]) | fold induction at 8 µM (T-cell [4]; [9]) | fold induction at 1 µM (T-cell [5]; [9]) | fold induction at 8 µM (T-cell [5]; [9]) | fold induction at 0.3 µM (T-cell [6]; [9]) | fold induction at 1 µM (T-cell [6]; [9]) | fold induction at 4 µM (T-cell [6]; [9])
1 | Cn1cnnc1[C@H](F)C1(c2cccc(N3Cc4c(cc(CN5CCCC5)cc4C(F)(F)F)C3=O)c2)COC1 [Example 673b, (R)-2-(3-(3-(fluoro(4-methyl-4H-1,2,4-triazol-3-yl)methyl)oxetan-3-yl)phenyl)-6-(pyrrolidin-1-ylmethyl)-4-(trifluoromethyl)isoindolin-1-one] | ≤ 100 | 1.31 to 1.5 | 1.31 to 1.5 | < 100 | > 1 | > 0.201 | > 7.5 | > 7.5 |  |  |  |  |  |  |  |  |  | 
2 | C[C@H](Sc1nncn1C)c1cccc(NC(=O)c2ccc3ccccc3n2)c1 [Compound 9a] | ≤ 500 |  |  |  |  |  |  |  | 1.01 to 1.3 | 1.01 to 1.3 | 1.01 to 1.3 | 0.601 to 0.8 | 0.601 to 0.8 | < 0.05 | 0.051 to 0.1 | 1.01 to 2.5 | 1.01 to 2.5 | 1.01 to 2.5
3 | C[C@H](Cc1nncn1C)c1cccc(NC(=O)c2cn3ccnc3cn2)c1 [Compound 318, (R)-N-(3-(1-(4-Methyl-4H-1,2,4-triazol-3-yl)propan-2-yl)phenyl)imidazo[1,2-a]pyrazine-6-carboxamide] |  |  |  | 301 to 1000 |  |  |  |  | < 1 | 1.01 to 1.3 | 1.01 to 1.3 | 0.601 to 0.8 | 0.801 to 1 | 0.051 to 0.1 | 0.101 to 0.15 | 1.01 to 2.5 | 1.01 to 2.5 | 1.01 to 2.5
4 | C[C@H](Cc1nncn1C)c1cccc(NC(=O)c2cnn3cccnc23)c1 [Compound 324, (R)-N-(3-(1-(4-Methyl-4H-1,2,4-triazol-3-yl)propan-2-yl)phenyl)pyrazolo[1,5-a]pyrimidine-3-carboxamide] |  |  |  | 301 to 1000 |  |  |  |  | < 1 | < 1 | 1.01 to 1.3 | 0.601 to 0.8 | 0.601 to 0.8 | 0.051 to 0.1 | 0.051 to 0.1 | 1.01 to 2.5 | 1.01 to 2.5 | 1.01 to 2.5
5 | C[C@H](Cc1nncn1C)c1cc(OCCO)nc(N2Cc3c(cccc3C(F)(F)F)C2=O)c1 [Compound 359, (R)-2-(6-(2-hydroxyethoxy)-4-(1-(4-methyl-4H-1,2,4-triazol-3-yl)propan-2-yl)pyridin-2-yl)-4-(trifluoromethyl)isoindolin-1-one] |  |  |  | 301 to 1000 |  |  |  |  | 1.01 to 1.3 | 1.01 to 1.3 | 1.31 to 1.5 | 0.601 to 0.8 | > 1 | 0.051 to 0.1 | > 0.201 | 1.01 to 2.5 | 1.01 to 2.5 | 2.51 to 5
6 | CC(Sc1nncn1C)c1cccc(NC(=O)c2ccc3ccccc3n2)c1 (stereo not drawn) [Compound 9, N-(3-(1-((4-Methyl-4H-1,2,4-triazol-3-yl)thio)ethyl)phenyl)quinoline-2-carboxamide] | ≤ 1000 |  |  |  |  |  |  |  | < 1 | < 1 | 1.01 to 1.3 | < 0.6 | 0.601 to 0.8 | < 0.05 | 0.051 to 0.1 | 1.01 to 2.5 | 1.01 to 2.5 | 2.51 to 5
7 | C[C@H](Cc1nncn1C)c1cccc(NC(=O)c2cc3cccn3cn2)c1 [Compound 317, (R)-N-(3-(1-(4-Methyl-4H-1,2,4-triazol-3-yl)propan-2-yl)phenyl)pyrrolo[1,2-c]pyrimidine-3-carboxamide] |  |  |  | 301 to 1000 |  |  |  |  | 1.01 to 1.3 | 1.01 to 1.3 | 1.01 to 1.3 | 0.601 to 0.8 | 0.801 to 1 | 0.051 to 0.1 | 0.101 to 0.15 | 1.01 to 2.5 | 1.01 to 2.5 | 1.01 to 2.5
8 | C[C@@H](Cc1nncn1C)c1cccc(NC(=O)c2cc(C3CC3)cc(C(F)(F)F)n2)c1 [Compound 322, (S)-4-Cyclopropyl-N-(3-(1-(4-methyl-4H-1,2,4-triazol-3-yl)propan-2-yl)phenyl)-6-(trifluoromethyl)picolinamide] |  |  |  | 301 to 1000 |  |  |  |  | 1.01 to 1.3 | 1.01 to 1.3 | 1.01 to 1.3 | 0.601 to 0.8 | 0.601 to 0.8 | 0.051 to 0.1 | 0.101 to 0.15 | 1.01 to 2.5 | 1.01 to 2.5 | 1.01 to 2.5
9 | C[C@H](Cc1nncn1C)c1cccc(NC(=O)c2ccn3nccc3n2)c1 [Compound 316, (R)-N-(3-(1-(4-Methyl-4H-1,2,4-triazol-3-yl)propan-2-yl)phenyl)pyrazolo[1,5-a]pyrimidine-5-carboxamide] |  |  |  | 301 to 1000 |  |  |  |  | 1.01 to 1.3 | 1.01 to 1.3 | 1.01 to 1.3 | 0.601 to 0.8 | > 1 | 0.051 to 0.1 | 0.151 to 0.2 | 1.01 to 2.5 | 1.01 to 2.5 | 2.51 to 5
